{"source": "patent US4474794A", "about": "“N-Thiazolylmethylthioalkyl-N^1 -alkenyl (or alkynyl)guanidines and related compounds” (Eli Lilly and Company, priority 1982, dated 1984)", "key": {"H2 -receptor": {"tested_on": "H2 -receptor", "conditions": "said in U.S. Pat. No. 4,203,909; cited from earlier work"}, "H2 -receptors": {"molecular_target": "T1, H2 -receptors (Rattus norvegicus, UniProt P25102)", "T1 construct": "uterine horns removed therefrom and suspended at ambient temperatures in isolated organ baths; from tissue; host or cells: isolated uterine horns of estrone-treated female albino rats", "T1 sequence (P25102 whole entry)": "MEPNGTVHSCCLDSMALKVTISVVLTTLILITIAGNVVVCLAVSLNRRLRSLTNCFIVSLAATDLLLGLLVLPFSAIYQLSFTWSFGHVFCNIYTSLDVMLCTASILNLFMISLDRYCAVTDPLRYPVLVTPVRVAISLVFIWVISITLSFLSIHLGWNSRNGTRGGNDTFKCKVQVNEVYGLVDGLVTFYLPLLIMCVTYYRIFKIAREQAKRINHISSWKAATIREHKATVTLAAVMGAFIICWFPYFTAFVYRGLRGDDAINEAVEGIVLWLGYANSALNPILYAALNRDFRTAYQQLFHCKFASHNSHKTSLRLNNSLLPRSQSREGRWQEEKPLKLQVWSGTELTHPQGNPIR", "assay": "H2-receptor blocking activity, histamine relaxation of KCl-contracted isolated rat uterine horns", "type": "cell-based", "conditions": "for Kb: antagonist 10^-5 molar for 30 minutes, rat uterine strips, histamine dose-response shift, read-out: pA2 (-log KB) (converted)", "protocol": "The following assay for H2 -receptor blocking activity was employed. Female albino rats were treated with estrone 24 hours prior to the initiation of the experiment. The rats were sacrificed and the uterine horns removed therefrom and suspended at ambient temperatures in isolated organ baths containing De Jalon's solution. After equilibration, the uterine strips are exposed to 50 millimole aqueous potassium chloride, which produces a sustained contraction. When the uterus is so contracted, histamine produces a dose-dependent H2 -receptor-mediated relaxation. A control dose-response curve to histamine is constructed on each tissue. Following thorough washout of the histamine after obtaining the control dose-response curve, each antagonist (the compounds of this invention) is added for 30 minutes at a concentration of 10^-5 molar. The uterine strips are then contracted with aqueous potassium chloride in the presence of the antagonist and a second dose-response curve to histamine obtained. In the presence of a competitive antagonist, the dose-response curve to histamine is shifted in parallel to the right with no depression of the maximum relative to the control curve. The dose ratio (DR) is calculated for each concentration of antagonist by dividing the ED50 of histamine in the presence of the competitive antagonist by the control ED50 for histamine. The dissociation constant (KB ) of the antagonist is calculated from the dose-ratios by the following equation: […]\nCimetidine is included as an internal standard."}, "acid secretion": {"tested_on": "acid secretion", "assay": "in vivo antisecretory action on histamine-stimulated acid secretion in gastric fistula dogs", "protocol": "An in vivo assay for antisecretory action of drugs on acid secretion utilizes gastric fistula dogs with vagally innervated gastric fistula and vagally denervated Heidenhain pouch. In this procedure, a steady-state gastric secretion is produced by the iv infusion of histamine. The antisecretory drugs under test are given either intravenously by infusion over a 30 minute period or orally 75 min. prior to collection of gastric secretion from the fistula."}, "H2 receptor": {"tested_on": "H2 receptor", "conditions": "prior art; cited from earlier work"}}, "data": [{"smiles": "C#CCNC(=C[N+](=O)[O-])NCCSCc1ccc(CN(C)C)o1", "note": "[1-nitro-2-(2-propynylamino)-2-(2-[(5-dimethylaminomethyl-2-furyl)methylthio]ethylamino)ethylene]", "values": [{"measurement": "times the activity of cimetidine", "setting": "H2 -receptor", "value": 7.45, "unit": "times"}]}, {"smiles": "C#CCNC(=NC#N)NCCSCc1csc(CN(C)C)n1", "note": "[N-2-propynyl-N'-2-(2-dimethylaminomethyl-4-thiazolylmethylthio)ethyl-N\"-cyanoguanidine]", "values": [{"measurement": "Kb", "setting": "H2 -receptors", "value": 1000, "unit": "nM"}]}, {"smiles": "C#CCNC(=C[N+](=O)[O-])NCCSCc1csc(CN(C)C)n1", "note": "[N-(2-propynyl)-N'-2-(2-dimethylaminomethyl-4-thiazolylmethylthio)ethyl 2-nitro-1,1-ethenediamine]", "values": [{"measurement": "Kb", "setting": "H2 -receptors", "value": 186, "unit": "nM"}, {"measurement": "times higher affinity for the H2 -receptors than cimetidine", "setting": "H2 -receptors; relative to cimetidine internal standard", "value": "approximately 3.63 times"}, {"measurement": "ED50", "setting": "acid secretion; Canis lupus familiaris, 0.5 h, iv infusion over 30 minutes, histamine-stimulated gastric secretion", "value": 0.068, "unit": "µmol/kg"}, {"measurement": "times smaller ED50 (iv) than that found for cimetidine", "setting": "acid secretion; iv, relative to cimetidine", "value": "over 7 times"}]}, {"smiles": "CNC(=C[N+](=O)[O-])NCCSCc1ccc(CN(C)C)o1", "note": "[ranitidine]", "values": [{"measurement": "H2 receptor antagonist activity compared with cimetidine", "setting": "H2 receptor", "value": "greater H2 receptor antagonist activity than cimetidine"}]}]}
